Measurements from PubChem BioAssay AID330 (DTP/NCI, 2004).
“And” between values parts separate entries of the source, which are not always exact repeats. Equal entries are not always repeated. Inconclusive results and toxic doses are left out.

System: P388 leukemia ip, CD2F1 mice, survival T/C
Test: NCI In Vivo Anticancer Drug Screen. Data for tumor model P388 Leukemia (intraperitoneal) in CD2F1 (CDF1) mice
Conditions: endpoint: median survival time, higher = longer survival
Method in brief: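 Mice carrying the transplanted tumor received test compound or vehicle. Survival was recorded in each group, and the value is the treated-group measurement divided by that of the vehicle-treated control group.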

[1] = dose: 50.0 mg/kg/injection, schedule: Q01DX005 (ip), vehicle: saline with Tween-80
[2] = dose: 100.0 mg/kg/injection, schedule: Q01DX005 (ip), vehicle: saline with Tween-80
[3] = dose: 200.0 mg/kg/injection, schedule: Q01DX005 (ip), vehicle: saline with Tween-80
[4] = dose: 60.0 mg/kg/injection, schedule: Q01DX005 (ip), vehicle: Klucel (hydroxypropylcellulose) (HPC)
[5] = dose: 120.0 mg/kg/injection, schedule: Q01DX005 (ip), vehicle: Klucel (hydroxypropylcellulose) (HPC)
[6] = dose: 240.0 mg/kg/injection, schedule: Q01DX005 (ip), vehicle: Klucel (hydroxypropylcellulose) (HPC)
[7] = dose: 50.0 mg/kg/injection, schedule: Q04DX003 (ip), vehicle: saline with Tween-80
[8] = dose: 60.0 mg/kg/injection, schedule: Q01DX005 (ip), vehicle: saline with Tween-80
[9] = dose: 120.0 mg/kg/injection, schedule: Q01DX005 (ip), vehicle: saline with Tween-80
[10] = dose: 240.0 mg/kg/injection, schedule: Q01DX005 (ip), vehicle: saline with Tween-80
[11] = dose: 15.0 mg/kg/injection, schedule: Q01DX005 (ip), vehicle: saline with Tween-80
[12] = dose: 30.0 mg/kg/injection, schedule: Q01DX005 (ip), vehicle: saline with Tween-80

SMILES: COC(=O)N1[C@@H]2C=CC=CC=C2[C@@H](OC)N1C(=O)OC
- T/C [1]: 101 % of control
- T/C [2]: 103 % of control
- T/C [3]: 103 % of control

SMILES: O=C(CC1(O)C(=O)Nc2ccc([N+](=O)[O-])cc21)c1ccco1 (stereo not drawn)
- T/C [4]: 96 % of control
- T/C [5]: 100 % of control
- T/C [6]: 99 % of control

SMILES: COc1ccc(OC)c(C2N(Cc3ccc(N(C)C)cc3)CCCN2Cc2ccc(N(C)C)cc2)c1
- T/C [7]: 91 % of control
- T/C (dose: 100.0 mg/kg/injection, schedule: Q04DX003 (ip), vehicle: saline with Tween-80): 91 % of control

SMILES: O/N=C/C(=NCc1ccccn1)NO
- T/C [4]: 107 % of control
- T/C [5]: 103 % of control
- T/C [6]: 103 % of control

SMILES: CC(C)N1C(=O)C2C3C=CC(C2C1=O)C1C2C(=O)N(C(C)C)C(=O)C2C31 (stereo not drawn)
- T/C (dose: 100.0 mg/kg/injection, schedule: Q01DX001 (ip), vehicle: saline with Tween-80): 99 % of control
- T/C (dose: 200.0 mg/kg/injection, schedule: Q01DX001 (ip), vehicle: saline with Tween-80): 96 % of control
- T/C (dose: 400.0 mg/kg/injection, schedule: Q01DX001 (ip), vehicle: saline with Tween-80): 89 % of control

SMILES: CCN(CC)CCNc1ccc(C)c2sc3cc(O)ccc3c(=O)c12
- T/C (dose: 50.0 mg/kg/injection, schedule: Q01DX005 (ip), vehicle: saline): 107 % of control
- T/C (dose: 100.0 mg/kg/injection, schedule: Q01DX005 (ip), vehicle: saline): 108 % of control
- T/C (dose: 200.0 mg/kg/injection, schedule: Q01DX005 (ip), vehicle: saline): 106 % of control

SMILES: CC1CCC2(CC1C)C(=O)NC(=O)NC2=O (stereo not drawn)
- T/C (dose: 12.5 mg/kg/injection, schedule: Q04DX003 (ip), vehicle: Klucel (hydroxypropylcellulose) (HPC)): 100 % of control
- T/C (dose: 25.0 mg/kg/injection, schedule: Q04DX003 (ip), vehicle: Klucel (hydroxypropylcellulose) (HPC)): 97 % of control
- T/C (dose: 50.0 mg/kg/injection, schedule: Q04DX003 (ip), vehicle: Klucel (hydroxypropylcellulose) (HPC)): 105 % of control
- T/C (dose: 100.0 mg/kg/injection, schedule: Q04DX003 (ip), vehicle: Klucel (hydroxypropylcellulose) (HPC)): 100 % of control

SMILES: CCSC(SCC)C(NC(C)=O)C(O)C(O)C(O)CO (stereo not drawn)
- T/C (dose: 12.5 mg/kg/injection, schedule: Q01DX009 (ip), vehicle: water): 114 % of control
- T/C (dose: 25.0 mg/kg/injection, schedule: Q01DX009 (ip), vehicle: water): 113 % of control
- T/C (dose: 50.0 mg/kg/injection, schedule: Q01DX009 (ip), vehicle: water): 107 % of control
- T/C (dose: 100.0 mg/kg/injection, schedule: Q01DX009 (ip), vehicle: water): 109 % of control
- T/C (dose: 200.0 mg/kg/injection, schedule: Q01DX009 (ip), vehicle: water): 106 % of control

SMILES: CN(C)CCNC1=CC(=O)c2ccccc2C1=O
- T/C (dose: 12.5 mg/kg/injection, schedule: Q01DX009 (ip), vehicle: distilled water + Tween-80): 94 % of control
- T/C (dose: 25.0 mg/kg/injection, schedule: Q01DX009 (ip), vehicle: distilled water + Tween-80): 101 % of control
- T/C (dose: 50.0 mg/kg/injection, schedule: Q01DX009 (ip), vehicle: distilled water + Tween-80): 100 % of control
- T/C (dose: 100.0 mg/kg/injection, schedule: Q01DX009 (ip), vehicle: distilled water + Tween-80): 97 % of control

SMILES: BrC1CC2(OCCO2)C(Br)CC12OCCO2 (stereo not drawn)
- T/C (dose: 25.0 mg/kg/injection, schedule: Q04DX003 (ip), vehicle: saline): 99 % of control
- T/C (dose: 50.0 mg/kg/injection, schedule: Q04DX003 (ip), vehicle: saline): 100 % of control
- T/C (dose: 100.0 mg/kg/injection, schedule: Q04DX003 (ip), vehicle: saline): 118 % of control
- T/C (dose: 200.0 mg/kg/injection, schedule: Q04DX003 (ip), vehicle: saline): 103 % of control
- T/C (dose: 400.0 mg/kg/injection, schedule: Q04DX003 (ip), vehicle: saline): 103 % of control

SMILES: CCOC(=O)C1C(C(=O)c2ccccc2)C12C(=O)N(C)c1ccccc12 (stereo not drawn)
- T/C (dose: 12.5 mg/kg/injection, schedule: Q04DX002 (ip), vehicle: saline with Tween-80): 103 % of control
- T/C (dose: 25.0 mg/kg/injection, schedule: Q04DX002 (ip), vehicle: saline with Tween-80): 107 % of control
- T/C (dose: 50.0 mg/kg/injection, schedule: Q04DX002 (ip), vehicle: saline with Tween-80): 103 % of control

SMILES: O=C1NC(CN2CCCCC2)C(=O)NC1CN1CCCCC1 (stereo not drawn)
- T/C [4]: 89 % of control
- T/C [5]: 92 % of control

SMILES: [Cu+2].[O-]/N=C/c1ccc(O)c(O)c1[O-].[O-]/N=C/c1ccc(O)c(O)c1[O-]
- T/C [8]: 91 % of control
- T/C [9]: 87 % of control
- T/C [10]: 89 % of control

SMILES: CCCCCCCCCCCCCCCCOc1ccc(-c2cc(Cl)c3cc(S(=O)(=O)F)ccc3n2)cc1S(=O)(=O)F
- T/C (dose: 50.0 mg/kg/injection, schedule: Q01DX009 (ip), vehicle: saline with Tween-80): 86 % of control
- T/C [7]: 90 % of control
- T/C (dose: 200.0 mg/kg/injection, schedule: Q01DX009 (ip), vehicle: saline with Tween-80): 90 % of control
- T/C (dose: 200.0 mg/kg/injection, schedule: Q04DX003 (ip), vehicle: saline with Tween-80): 90 % of control

SMILES: OC(COc1c2ccccc2nc2ccccc12)CN1CCN(c2cccc(Cl)c2)CC1 (stereo not drawn)
- T/C [1]: 90 % of control
- T/C [2]: 88 % of control
- T/C [3]: 90 % of control

SMILES: CCc1ccc(C2=C(O)C(=O)C(c3ccc(CC)cc3)=C(O)C2=O)cc1
- T/C (dose: 6.25 mg/kg/injection, schedule: Q01DX009 (ip), vehicle: saline with Tween-80): 100 % of control
- T/C (dose: 12.5 mg/kg/injection, schedule: Q01DX009 (ip), vehicle: saline with Tween-80): 110 % of control
- T/C (dose: 33.0 mg/kg/injection, schedule: Q01DX009 (ip), vehicle: saline with Tween-80): 163 % of control

SMILES: CCCS/C(N)=N/N=C/c1ccc([N+](=O)[O-])o1
- T/C (dose: 6.25 mg/kg/injection, schedule: Q01DX009 (ip), vehicle: suspension in saline): 102 % of control
- T/C (dose: 12.5 mg/kg/injection, schedule: Q01DX009 (ip), vehicle: suspension in saline): 92 % of control
- T/C (dose: 25.0 mg/kg/injection, schedule: Q01DX009 (ip), vehicle: suspension in saline): 91 % of control
- T/C (dose: 50.0 mg/kg/injection, schedule: Q01DX009 (ip), vehicle: suspension in saline): 109 % of control

SMILES: O=C1C=CC2=C3c4cc(O)c(O)cc4CC3(O)COC2=C1O (stereo not drawn)
- T/C (dose: 6.25 mg/kg/injection, schedule: Q01DX009 (ip), vehicle: saline): 102 % of control
- T/C (dose: 12.5 mg/kg/injection, schedule: Q01DX009 (ip), vehicle: saline): 108 % of control
- T/C (dose: 25.0 mg/kg/injection, schedule: Q01DX009 (ip), vehicle: saline): 118 % of control
- T/C (dose: 50.0 mg/kg/injection, schedule: Q01DX009 (ip), vehicle: saline): 108 % of control

SMILES: COc1ccc(C(c2c(O)c3ccccc3oc2=O)N2CCCC2)cc1 (stereo not drawn)
- T/C [11]: 100 % of control
- T/C [12]: 100 % of control
- T/C [8]: 103 % of control and 97 % of control

SMILES: COc1cc(NC(C)=O)c(OC)c2c(Cl)ccnc12
- T/C (dose: 100.0 mg/kg/injection, schedule: Q01DX001 (ip), vehicle: acid diluted with saline): 101 % of control
- T/C (dose: 200.0 mg/kg/injection, schedule: Q01DX001 (ip), vehicle: acid diluted with saline): 99 % of control

SMILES: Cc1cn(Cc2ccc(Cl)cc2Cl)c(C)n1
- T/C [11]: 100 % of control
- T/C [12]: 107 % of control
- T/C [8]: 100 % of control and 108 % of control

SMILES: CC(C)c1nnc(NC(=O)CSC(=S)N2CCOCC2)s1
- T/C [8]: 106 % of control
- T/C [9]: 98 % of control
- T/C [10]: 97 % of control

SMILES: O=C(/C=C/c1ccc(OCC2CO2)cc1)c1cc2ccccc2nc1Cl (stereo not drawn)
- T/C (dose: 100.0 mg/kg/injection, schedule: Q04DX002 (ip), vehicle: saline with Tween-80): 100 % of control
- T/C (dose: 200.0 mg/kg/injection, schedule: Q04DX002 (ip), vehicle: saline with Tween-80): 100 % of control
- T/C (dose: 400.0 mg/kg/injection, schedule: Q04DX002 (ip), vehicle: saline with Tween-80): 100 % of control

SMILES: CC(C)=CCC/C(C)=C/CC1=CC(=O)C=CC1=O
- T/C (dose: 25.0 mg/kg/injection, schedule: Q01DX009 (ip), vehicle: Klucel (hydroxypropylcellulose) (HPC)): 101 % of control
- T/C (dose: 50.0 mg/kg/injection, schedule: Q01DX009 (ip), vehicle: Klucel (hydroxypropylcellulose) (HPC)): 97 % of control
- T/C (dose: 100.0 mg/kg/injection, schedule: Q01DX009 (ip), vehicle: Klucel (hydroxypropylcellulose) (HPC)): 87 % of control
